What was measured:
Assay in all cases: c-ponatinib pulldown LC-MS/MS
Format in all cases: binding
[1] = target: MAP4K4 (Homo sapiens, UniProt O95819)
Method in brief: (§1)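 Affinity matrix: 25 nmol c-ponatinib/50 μl NHS-Sepharose; 10 mg whole cell lysate input; duplicate pulldowns, each run twice by LC-MS/MS. DTT/iodoacetamide, trypsin. Human SwissProt search, protein FDR <1%. Competition with free compound; fold reduction = median spectral count ratio.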

[2] = target: MAPKAPK3 (Homo sapiens, UniProt Q16644)
Chain of MAPKAPK3 (Q16644 whole entry): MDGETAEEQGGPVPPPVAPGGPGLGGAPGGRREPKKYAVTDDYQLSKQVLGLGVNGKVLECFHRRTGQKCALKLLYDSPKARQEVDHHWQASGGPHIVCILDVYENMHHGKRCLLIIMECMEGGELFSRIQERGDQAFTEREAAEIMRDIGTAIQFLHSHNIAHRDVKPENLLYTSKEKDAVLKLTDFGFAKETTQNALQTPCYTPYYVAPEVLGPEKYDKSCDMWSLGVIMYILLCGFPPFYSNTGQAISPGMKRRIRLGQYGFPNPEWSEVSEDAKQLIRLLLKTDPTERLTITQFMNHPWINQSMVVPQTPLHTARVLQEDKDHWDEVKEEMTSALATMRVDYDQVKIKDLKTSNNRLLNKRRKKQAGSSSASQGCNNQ
Method in brief: as §1

[3] = target: ABL1 (Homo sapiens, UniProt P00519)
Chain of ABL1 (P00519 whole entry): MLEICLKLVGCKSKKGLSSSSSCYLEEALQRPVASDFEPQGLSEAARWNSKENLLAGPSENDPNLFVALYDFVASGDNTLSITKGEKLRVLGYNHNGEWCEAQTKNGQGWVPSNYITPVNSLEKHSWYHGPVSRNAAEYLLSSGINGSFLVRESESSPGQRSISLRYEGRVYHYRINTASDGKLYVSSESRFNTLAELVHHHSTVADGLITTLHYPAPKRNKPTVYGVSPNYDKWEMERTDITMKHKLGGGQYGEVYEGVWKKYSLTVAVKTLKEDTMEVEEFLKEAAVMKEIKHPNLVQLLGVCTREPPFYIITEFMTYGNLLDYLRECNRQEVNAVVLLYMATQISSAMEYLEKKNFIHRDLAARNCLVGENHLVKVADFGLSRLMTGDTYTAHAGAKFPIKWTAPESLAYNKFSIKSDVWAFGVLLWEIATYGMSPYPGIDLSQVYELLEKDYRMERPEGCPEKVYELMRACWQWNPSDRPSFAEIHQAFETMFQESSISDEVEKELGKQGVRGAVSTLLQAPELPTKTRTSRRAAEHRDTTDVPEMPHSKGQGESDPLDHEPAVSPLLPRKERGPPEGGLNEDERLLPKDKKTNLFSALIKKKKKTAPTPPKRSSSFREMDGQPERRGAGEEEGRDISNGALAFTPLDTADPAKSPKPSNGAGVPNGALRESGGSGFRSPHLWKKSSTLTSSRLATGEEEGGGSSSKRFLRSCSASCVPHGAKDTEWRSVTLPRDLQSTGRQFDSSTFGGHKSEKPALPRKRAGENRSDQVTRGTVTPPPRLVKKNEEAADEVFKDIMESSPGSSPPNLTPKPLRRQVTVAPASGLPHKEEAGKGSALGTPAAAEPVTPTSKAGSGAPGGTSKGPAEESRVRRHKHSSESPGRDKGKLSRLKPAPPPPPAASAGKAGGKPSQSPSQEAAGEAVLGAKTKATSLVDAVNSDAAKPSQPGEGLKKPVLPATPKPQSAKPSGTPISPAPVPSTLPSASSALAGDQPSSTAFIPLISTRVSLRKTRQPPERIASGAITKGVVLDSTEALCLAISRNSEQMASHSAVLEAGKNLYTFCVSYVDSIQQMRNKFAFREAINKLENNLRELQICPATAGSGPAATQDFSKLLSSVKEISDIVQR
Method in brief: as §1

[4] = target: T1, NAP1L1 (Homo sapiens, UniProt P55209)
T1 sequence (P55209 1-391): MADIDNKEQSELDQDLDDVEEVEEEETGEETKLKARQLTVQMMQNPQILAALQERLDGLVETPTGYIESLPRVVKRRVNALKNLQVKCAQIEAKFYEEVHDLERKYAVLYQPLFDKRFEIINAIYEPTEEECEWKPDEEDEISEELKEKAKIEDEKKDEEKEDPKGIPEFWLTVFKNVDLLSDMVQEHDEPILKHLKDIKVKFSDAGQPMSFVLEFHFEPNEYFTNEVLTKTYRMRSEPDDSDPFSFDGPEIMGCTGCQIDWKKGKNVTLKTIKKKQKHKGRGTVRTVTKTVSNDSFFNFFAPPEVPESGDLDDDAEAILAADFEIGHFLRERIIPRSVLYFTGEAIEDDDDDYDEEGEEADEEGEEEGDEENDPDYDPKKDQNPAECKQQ
Method in brief: as §1

[5] = target: T2, TAOK3 (Homo sapiens, UniProt Q9H2K8)
T2 sequence (Q9H2K8 1-898): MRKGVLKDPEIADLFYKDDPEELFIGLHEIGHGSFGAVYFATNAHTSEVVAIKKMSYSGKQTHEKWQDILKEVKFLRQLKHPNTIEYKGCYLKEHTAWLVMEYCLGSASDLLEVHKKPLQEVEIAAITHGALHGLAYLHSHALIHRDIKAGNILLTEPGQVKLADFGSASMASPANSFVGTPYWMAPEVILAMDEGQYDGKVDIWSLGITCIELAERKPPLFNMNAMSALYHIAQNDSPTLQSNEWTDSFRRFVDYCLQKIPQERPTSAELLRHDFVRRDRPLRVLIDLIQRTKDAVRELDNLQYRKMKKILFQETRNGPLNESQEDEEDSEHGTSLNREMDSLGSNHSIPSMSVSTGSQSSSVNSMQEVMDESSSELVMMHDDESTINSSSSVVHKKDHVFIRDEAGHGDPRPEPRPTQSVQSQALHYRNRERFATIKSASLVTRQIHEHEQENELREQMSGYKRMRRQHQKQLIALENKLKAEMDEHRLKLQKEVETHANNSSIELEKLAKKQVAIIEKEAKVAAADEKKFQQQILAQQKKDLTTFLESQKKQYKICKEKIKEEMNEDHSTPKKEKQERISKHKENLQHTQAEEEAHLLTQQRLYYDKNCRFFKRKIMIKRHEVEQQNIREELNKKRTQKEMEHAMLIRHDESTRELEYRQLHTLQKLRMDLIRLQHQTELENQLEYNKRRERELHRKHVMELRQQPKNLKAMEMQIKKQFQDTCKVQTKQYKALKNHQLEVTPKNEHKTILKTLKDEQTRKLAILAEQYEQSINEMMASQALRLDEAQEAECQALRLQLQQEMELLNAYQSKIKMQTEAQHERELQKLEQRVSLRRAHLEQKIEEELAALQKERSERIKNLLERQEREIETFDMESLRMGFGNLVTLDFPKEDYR
Method in brief: as §1

Chain of MAP4K4 (O95819 whole entry): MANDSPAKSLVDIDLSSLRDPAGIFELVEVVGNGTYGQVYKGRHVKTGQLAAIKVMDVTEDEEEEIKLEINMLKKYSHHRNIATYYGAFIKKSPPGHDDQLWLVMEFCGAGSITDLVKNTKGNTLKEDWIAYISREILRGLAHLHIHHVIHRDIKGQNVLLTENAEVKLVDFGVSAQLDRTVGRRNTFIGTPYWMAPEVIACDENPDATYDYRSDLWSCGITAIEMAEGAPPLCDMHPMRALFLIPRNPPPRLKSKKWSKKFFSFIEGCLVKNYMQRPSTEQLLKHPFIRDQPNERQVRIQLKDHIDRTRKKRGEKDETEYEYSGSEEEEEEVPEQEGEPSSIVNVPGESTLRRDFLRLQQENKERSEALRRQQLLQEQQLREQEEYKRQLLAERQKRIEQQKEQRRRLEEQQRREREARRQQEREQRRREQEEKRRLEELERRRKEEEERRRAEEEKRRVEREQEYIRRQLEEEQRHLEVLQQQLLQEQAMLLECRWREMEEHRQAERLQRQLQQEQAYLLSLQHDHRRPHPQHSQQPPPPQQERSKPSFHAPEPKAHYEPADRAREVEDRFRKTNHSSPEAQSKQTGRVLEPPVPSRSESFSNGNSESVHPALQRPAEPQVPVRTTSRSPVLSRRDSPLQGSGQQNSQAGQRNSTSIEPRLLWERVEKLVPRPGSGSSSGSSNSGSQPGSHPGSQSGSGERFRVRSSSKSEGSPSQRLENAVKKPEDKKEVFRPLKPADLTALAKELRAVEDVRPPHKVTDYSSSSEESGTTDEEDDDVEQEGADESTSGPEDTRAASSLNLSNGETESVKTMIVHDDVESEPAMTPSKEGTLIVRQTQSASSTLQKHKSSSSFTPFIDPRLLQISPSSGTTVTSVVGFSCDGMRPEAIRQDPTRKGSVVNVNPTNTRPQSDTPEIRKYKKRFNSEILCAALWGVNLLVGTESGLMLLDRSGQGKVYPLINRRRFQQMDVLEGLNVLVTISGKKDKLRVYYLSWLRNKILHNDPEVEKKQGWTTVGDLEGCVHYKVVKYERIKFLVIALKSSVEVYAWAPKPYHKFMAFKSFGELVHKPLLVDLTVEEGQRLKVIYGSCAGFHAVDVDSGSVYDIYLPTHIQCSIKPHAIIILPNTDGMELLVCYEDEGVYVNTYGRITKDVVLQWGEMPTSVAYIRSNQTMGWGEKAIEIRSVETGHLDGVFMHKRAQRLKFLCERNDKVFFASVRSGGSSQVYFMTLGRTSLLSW

Av. SC comp. ([1]; + free ponatinib): 10.75
Total SC comp. ([1]; + free ponatinib): 43
Av. SC ([1]; no competitor): 54.5
Total SC ([1]; no competitor): 218
Av. SC comp. ([2]; + free ponatinib): 0
Total SC comp. ([2]; + free ponatinib): 0
Av. SC ([2]; no competitor): 10.5
Total SC ([2]; no competitor): 42
Av. SC comp. ([3]; + free ponatinib): 0
Total SC comp. ([3]; + free ponatinib): 0
Av. SC ([3]; no competitor): 13.75
Total SC ([3]; no competitor): 55
Av. SC comp. ([4]; + free ponatinib): 1.25
Total SC comp. ([4]; + free ponatinib): 5
Av. SC ([4]; no competitor): 2
Total SC ([4]; no competitor): 8
Av. SC comp. ([5]; + free ponatinib): 2
Total SC comp. ([5]; + free ponatinib): 8
Av. SC ([5]; no competitor): 13
Total SC ([5]; no competitor): 52
Compound: Cc1ccc(C(=O)Nc2ccc(CN3CCN(CCCN)CC3)c(C(F)(F)F)c2)cc1C#Cc1cnc2cccnn12 [c-ponatinib]
